In patent US9890129B2, “Aminoalkylbenzothiazepine derivatives and uses thereof” (CJ Healthcare Corporation, priority 2014, dated 2018):

Test system: SD rats
Experiment: Feces excretion time and evaluation of efficiency (barium-containing diet, oral administration)
Format: in vivo, rat
Settings: for Feces excretion time (min) @ volume (mg/kg): observed 10 hours
Method: Eight-week-old SD rats were purchased and allowed to adapt to breeding conditions under 12-hour illumination at 24° C. for 7 days. The rats were made to fast for 16 hours before the experimental day, and orally administered on the experimental day with a vehicle (0.5% methylcellulose) and a test material, […], respectively. Thirty minutes after the administration, the rats fed with 3 g of a barium-containing diet were placed into a metabolism cage and observed to record the time required for the barium to be excreted as feces in each rat after being passed through the intestines for 10 hours. Additionally, the percentage of rats that excreted barium-containing feces within 10 hours were calculated, and the results are shown in Table 1 below.

| Compound | Percentage of subjects excreting feces within 10 hours (%) (0.1 mg/kg) | Feces excretion time (min) @ volume (mg/kg) (0.1 mg/kg) | Percentage of subjects excreting feces within 10 hours (%) (1 mg/kg) | Feces excretion time (min) @ volume (mg/kg) (1 mg/kg) | Percentage of subjects excreting feces within 10 hours (%) (5 mg/kg) | Feces excretion time (min) @ volume (mg/kg) (5 mg/kg) |
| --- | --- | --- | --- | --- | --- | --- |
| CCCCC1(CCCC)CN(c2ccccc2)c2cc(SC)c(CNCC(=O)O)cc2S(=O)(=O)C1 [Example 1, 2-(((3,3-dibutyl-7-methylthio-1,1-dioxido-5-phenyl-2,3,4,5-tetrahydrobenzo[b][1,4]thiazepine-8-yl)methyl)amino)acetic acid] | B @ 0.1 (B: 50-75%) | C @ 0.1 (C: 501-590 min) | A @ 1 (A: 76-100%) | B @ 1 (B: 401-500 min) | A @ 5 (A: 76-100%) | A @ 5 (A: 301-400 min) |
| CCCCC1(CCCC)CN(c2ccccc2)c2cc(SC)c(CNC(=O)CS(=O)(=O)O)cc2S(=O)(=O)C1 [Example 18, 2-(((3,3-dibutyl-7-methylthio-1,1-dioxido-5-phenyl-2,3,4,5-tetrahydrobenzo[b][1,4]thiazepine-8-yl)methyl)amino)-2-oxoethanesulfonic acid] | – | – | B @ 1 (B: 50-75%) | B @ 1 (B: 401-500 min) | – | – |
| CCCCC1(CCCC)CN(c2ccc(OC)cc2)c2cc(SC)c(CNCC(=O)O)cc2S(=O)(=O)C1 [Example 19, 2-(((3,3-dibutyl-5-(4-methoxyphenyl)-7-methylthio-1,1-dioxido-2,3,4,5-tetrahydrobenzo[b][1,4]thiazepine-8-yl)methyl)amino)acetic acid] | – | – | A @ 1 (A: 76-100%) | C @ 1 (C: 501-590 min) | A @ 5 (A: 76-100%) | B @ 5 (B: 401-500 min) |
| CCCCC1(CCCC)CN(c2ccc(O)cc2)c2cc(SC)c(CNCC(=O)O)cc2S(=O)(=O)C1 [Example 20, 2-(((3,3-dibutyl-5-(4-hydroxyphenyl)-7-methylthio-1,1-dioxido-2,3,4,5-tetrahydrobenzo[b][1,4]thiazepine-8-yl)methyl)amino)acetic acid] | A @ 0.1 (A: 76-100%) | C @ 0.1 (C: 501-590 min) | A @ 1 (A: 76-100%) | B @ 1 (B: 401-500 min) | A @ 5 (A: 76-100%) | A @ 5 (A: 301-400 min) |
| CCCCC1(CCCC)CN(c2ccc(F)cc2)c2cc(SC)c(CNCC(=O)O)cc2S(=O)(=O)C1 [Example 22, 2-(((3,3-dibutyl-5-(4-fluorophenyl)-7-methylthio-1,1-dioxido-2,3,4,5-tetrahydrobenzo[b][1,4]thiazepine-8-yl)methyl)amino)acetic acid] | A @ 0.1 (A: 76-100%) | B @ 0.1 (B: 401-500 min) | A @ 1 (A: 76-100%) | B @ 1 (B: 401-500 min) | A @ 5 (A: 76-100%) | A @ 5 (A: 301-400 min) |
| CCCCC1(CCCC)CN(c2ccc(OC)c(F)c2)c2cc(SC)c(CNCC(=O)O)cc2S(=O)(=O)C1 [Example 24, 2-(((3,3-dibutyl-5-(3-fluoro-4-methoxyphenyl)-7-methylthio-1,1-dioxido-2,3,4,5-tetrahydrobenzo[b][1,4]thiazepine-8-yl)methyl)amino)acetic acid] | – | – | A @ 1 (A: 76-100%) | C @ 1 (C: 501-590 min) | A @ 5 (A: 76-100%) | A @ 5 (A: 301-400 min) |
